Key:
[1] = system: NDM producing K. pneumoniae clinical strain LA26; assay: Murine sepsis model: 2-hour intervals treatment scheme; assay type: in vivo, CD-1 mice; settings: for mice protected (survival): intraperitoneal, 140 hours
Experimental: Example 7. […] The animals were rendered neutropenic (<100 neutrophils/mm^3) by intraperitoneal injection of 150 and 100 mg/kg of cyclophosphamide at day -4 and day -1, respectively, before infection. […] The meropenem/ β-IDACYD combination was administrated in all dosing schemes simultaneously. […] Blood samples were taken 0, 6, 24 hours and 7 days after injection of a single dose of antibiotic (five infected animals for each timepoint) were serially diluted in normal saline (10^-1 to 10^-9) and plated on MH agar plates which were incubated for 16 hours at 37°C for determination of viable organisms. All mice that were alive were euthanised 7 days post infection and spleen and liver were harvested. The organs were placed into 1 mL of normal saline on ice and then homogenised. The organ homogenates were then serially diluted in normal saline (10^-1 to 10^-9) and plated on MH agar for CFU enumeration. Without therapy 90% of mice succumbed to the infection within 24 hours. […] Finally, the bacterial load in the spleen was relieved by 4.2 log10 compared to that of the antibiotic itself. In Fig.6 is shown the bacterial load (CFU/mL) (A) and survival percentage (B) of CD-1 mice infected with a lethal dose (10^7 CFU) of NDM-1 producing K. pneumoniae strain LA26. […] Treatment (initiated at 2 hours post infection) was given every 2h for a 24h period and blood was drawn 0 h, 6 h, 24 h and 140 h post treatment initiation. All groups were of n=10. Spleen and liver (C) from n=5 mice were also removed at 140 h post-treatment initiation the bacterial load [log (CFU/organ)] was determined. Error bars are indicative of SEM (n=2 replicates).

[2] = system: NDM-1 producing K. pneumoniae clinical strain LA 26; assay: Murine sepsis model: single dose treatment scheme-1; assay type: in vivo, CD-1 mice
Experimental: Example 8. In-vivo murine sepsis model: Single dose treatment scheme-1: Neutropenic 7-8 weeks old CD-1 female mice weighing 29 to 32 grams were infected interperitoneally with a lethal dose (10^7 CFU) of the NDM-1 producing K. pneumoniae clinical strain LA 26 as described previously. […] The meropenem/ β-IDACYD combination was administrated in all dosing schemes simultaneously. Blood samples were taken 0, 6, 24 hours and 3 days after injection of a single dose of antibiotic (five infected animals for each timepoint) and were serially diluted in normal saline (10^-1 to 10^-9) and plated on MH agar plates which were incubated for 16 hours at 37 °C for determination of viable organisms. All mice were euthanised 3 days post infection and spleen and liver were harvested. Organs were placed into 1 mL of normal saline on ice and then homogenised. Organ homogenates were then serially diluted in normal saline (10^-1 to 10^-9) and plated on MH agar plates for CFU enumeration. In the absence of therapy 30% of mice remained alive 70 hours post infection. […] The bacterial burden in the blood 70 hours post treatment was relieved by 4.8log10 in the presence of 120 mg/kg of β-IDACYD compared to that of the antibiotic monotherapy. […] In Fig. 7 is shown the bacterial load (CFU/mL) and survival percentage of CD-1 mice infected with a lethal dose (10^7 CFU) of NDM-1 producing K. pneumoniae strain LA26. […] Treatment was given in a form of a single shot 2h after infection and blood was drawn 0h, 6h, 24h and 70h post treatment initiation. All groups were of n=10. Error bars are indicative of SEM (n=2 replicates).

[3] = assay type: in vivo; settings: dosing schemes up to 500 mg/kg
Experimental: The acute in-vivo toxicity of β-IDACYD was also determined to provide range-finding doses to be used in in-vivo studies and possibly implicate target organs for toxicity.

[4] = target: VIM-1 (Pseudomonas aeruginosa, UniProt A0A0F7KYQ8); assay: Spectrophotometric IC50 determination against MBL; assay type: biochemical; settings: ± 1.07
[5] = target: NDM-1 (Klebsiella pneumoniae, UniProt C7C422); assay: Spectrophotometric IC50 determination against MBL; assay type: biochemical; settings: ± 0.32
NDM-1, sequence (C7C422 29-270, looked up): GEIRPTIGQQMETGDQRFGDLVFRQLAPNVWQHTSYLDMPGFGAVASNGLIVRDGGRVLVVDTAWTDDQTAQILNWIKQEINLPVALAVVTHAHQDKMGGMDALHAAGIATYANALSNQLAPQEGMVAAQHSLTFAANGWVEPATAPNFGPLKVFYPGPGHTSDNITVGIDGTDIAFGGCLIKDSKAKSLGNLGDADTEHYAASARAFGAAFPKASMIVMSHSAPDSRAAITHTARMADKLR

[6] = system: NDM, VIM and IMP producing K. pneumoniae clinical isolates; assay: Time kill assays; assay type: cell-based
Experimental: In Fig. 3 the results of the time-kill assays are shown. […] Results are expressed as log10 CFU/mL. Experiments were performed in duplicate. Antibiotic-free control cultures were included in each set of experiments as controls. Error bars are indicative of standard error mean (SEM) (n=2 replicates).

[7] = system: VIM-1 producing K. pneumoniae SEC-4; assay: Neutropenic murine thigh infection model; assay type: in vivo, CD-1 mice; settings: 30 mg/kg imipenem + 10 mg/kg β-IDACYD intravenously, 2 h intervals for 24 hours
Experimental: Example 6. In-vivo murine thigh infection model: A murine thigh infection model was utilized based on the biodistribution results. In a neutropenic mouse thigh infection model was administered intravenously a therapeutic scheme of either 30 mg/kg imipenem or 30 mg/kg imipenem co-administered with 10 mg/kg β-IDACYD in 2 h intervals for 24 hours. At the end of the treatment the bacterial burden of the thigh was reduced by 0.5 log10 in the presence of 10 mg/kg β-IDACYD compared to that of the antibiotic monotherapy.
Twenty, 10 weeks old female (CD-1) mice were rendered neutropenic by administration of two doses of cyclophosphamide (150 mg/kg and 100 mg/kg per mouse on days -4 and -1, respectively). On day 0, all mice were challenged with 0.1 mL of a 10^7 CFU/mL of VIM-1 producing K. pneumoniae SEC-4 by intramuscular injection in the right thigh. From the six mice in the control group that were treated with normal saline (Group A), two mice were sacrificed 2 hours post inoculation while the other mice in groups of seven mice each were intravenously treated with 30 mg/kg imipenem (Group B) or 30 mg/kg imipenem along with 10 mg/kg β-IDACYD (Group C) at 2 hour intervals for 24 hours. At 6-hours post inoculation two mice of group 1 as well as three mice of each of groups 2 and 3 were sacrificed and their thighs were aseptically removed. […]

[8] = system: L929 fibroblast cells
[9] = single dose 30 mg/kg meropenem + 120 mg/kg β-IDACYD

Row | SMILES | mice protected (survival) ([1]; meropenem monotherapy 30 mg/kg every 2 h for 24 h) | survival ([2]; meropenem monotherapy, single dose 30 mg/kg, 70 hours post infection) | mice protected (survival) ([1]; 30 mg/kg meropenem + 20 mg/kg β-IDACYD every 2 h for 24 h) | reduction of the bacterial load in the spleen compared to the antibiotic itself ([1]; 30 mg/kg meropenem + 20 mg/kg β-IDACYD every 2 h for 24 h, 140 h) | reduction of the bacterial load in blood compared to meropenem monotherapy ([1]; 30 mg/kg meropenem + 20 mg/kg β-IDACYD every 2 h for 24 h, 140 hours post treatment initiation) | acute in-vivo toxicity [3] | IC50 [4] | IC50 [5] | reduction of the bacterial load (CFU/mL) compared to that of the antibiotic alone ([6]; 50 µM β-IDACYD with meropenem or imipenem at MIC or 2xMIC, 24 hour incubation, strains LA26, LA 109/16, 5742) | bacterial load in time-kill assay ([6]; β-IDACYD 50 µM added to MIC or 2xMIC meropenem or imipenem) | reduction of bacterial burden of the thigh compared to antibiotic monotherapy [7] | reduction of bacterial load in the liver [2, 9] | reduction of bacterial load in the spleen [2, 9] | mice rescued (survival) ([2]; single dose 30 mg/kg meropenem + 120 mg/kg β-IDACYD, 70 hours) | reduction of bacterial burden in the blood compared to antibiotic monotherapy ([2]; single dose 30 mg/kg meropenem + 120 mg/kg β-IDACYD, 70 hours post treatment) | cell morphology under a microscope [8]
1 | C[C@@H](O)[C@H]1C(=O)N2C(C(=O)O)=C(S[C@@H]3CN[C@H](C(=O)N(C)C)C3)[C@H](C)[C@H]12 [Meropenem, reference compound] | 80% | 30% |  |  |  |  |  |  |  |  |  |  |  |  |  | 
2 | CO[C@@H]1[C@@H](OC)[C@H]2O[C@H]3[C@H](OC)[C@@H](OC)[C@@H](O[C@H]4[C@H](OC)[C@@H](OC)[C@@H](O[C@H]5[C@H](OC)[C@@H](OC)[C@@H](O[C@H]6[C@H](OC)[C@@H](OC)[C@@H](O[C@H]7[C@H](OC)[C@@H](OC)[C@@H](O[C@H]8[C@H](OC)[C@@H](OC)[C@@H](O[C@@H]1[C@@H](CN(CC(=O)O)CC(=O)O)O2)O[C@@H]8CN(CC(=O)O)CC(=O)O)O[C@@H]7CN(CC(=O)O)CC(=O)O)O[C@@H]6CN(CC(=O)O)CC(=O)O)O[C@@H]5CN(CC(=O)O)CC(=O)O)O[C@@H]4CN(CC(=O)O)CC(=O)O)O[C@@H]3CN(CC(=O)O)CC(=O)O [β-IDACYD] |  |  | 90% | 4.2 log10 | 4.0 log10 | no deaths and no signs indicative of acute toxicity | 15 µM | 1.63 µM | > 8 log10 | bacterial load remains close to zero | 0.5 log10 | 1.4 log10 | 3.8 log10 | 60% | 4.8 log10 | did not present any morphological differences characteristic of cytotoxicity
